Like-named read-outs stand apart in the source and are kept apart here.
Legend:
HPK1 [1] = molecular target: HPK1 (Homo sapiens, UniProt Q92918); experiment: HPK1 Lantha Binding Assay ("Lanth"); conditions: Table B2, read-out: HPK1 Ki (nM), L = Lanth
Outline: (§1)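 TR-FRET tracer displacement with 2 nM GST-tagged kinase, 2 nM Eu-anti-GST antibody and 15 nM Tracer222 at 23 C. Enzyme–antibody preincubated 1 h with compound, then tracer added for 1 h; 340 nm excitation, 615/665 nm emission. Ki from Morrison fit over an 11-point 5-fold dilution.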

[2] = system: primary human pan T cells; experiment: Human T-Cell IL2 Induction Assay; format: cell-based; conditions: anti-CD3/anti-CD28 stimulated primary human pan T cells
Description: Human T-Cell IL2 Induction Assay
Anti-CD3 and anti-CD28 activates TCR signaling in primary human pan T cells leading to IL-2 promoter induction. Secreted IL-2 in cell culture supernatant is detected by electrochemiluminescence using a capture antibody against IL-2 and an anti-IL-2 antibody labeled with SULFO-tag.
See www.mesoscale.com for additional electrochemiluminescence technology information.
Incubate primary human pan T cells with varying concentrations of test compounds for 30 minutes in a humidified incubator at 37° C. and 5% CO2. Transfer cells to a plate pre-coated with a fixed concentration of anti-human CD3 (determined separately for each donor lot) and add soluble anti-human CD28 (final concentration=1 μg/ml). Stimulate cells in a humidified incubator at 37° C. and 5% CO2 for 4 hours. Transfer 25 μl of supernatant to a MSD single spot plate pre-coated with an anti-human IL-2 antibody. Incubate MSD plate overnight at 4° C. with gentle shaking. Wash MSD plate 4× with wash buffer. Add SULFO-tagged detection antibody at a 1:50 dilution and incubate at room temperature shaking for 2 hours. Wash MSD plate 4× with wash buffer and add 150 μl 2×MSD read buffer. Read on an MSD instrument. Normalize data to stimulated/untreated controls to calculate % activity at each concentration of compound.
Materials: • Frozen Primary Human Pan-T Cells (StemCell Technologies #70024) • anti-human CD3 (OKT3 clone) (eBioscience #16-0037-81) • anti-human CD28 (CD28.2 clone) (BD #555725) • 96-well Human IL-2 tissue culture kit (MSD #K151AHB-4)
Instrumentation: • Biomek FX for liquid handling (Beckman Coulter) • MSD SECTOR S 600 (Meso Scale Discovery)
Exemplary compounds of Formula I or Ia were tested in the human T-cell IL-2 induction assays. The % increase measured for IL-2 in cells treated by the test compounds relative to untreated cells are provided in Table B2 for certain compounds (structures as shown with the HPK1 Ki values).

HPK1 [3] = experiment: HPK1 Lantha Binding Assay ("Lanth")
Outline: as §1

[4] = molecular target: HPK1-FL (HPK full length, T165E S171E) (Homo sapiens (Human), UniProt Q92918, S171E/T165E); experiment: HPK1-FL HTRF Enzymatic Assay ("HTRF"); format: biochemical; conditions: Table B2, read-out: HPK1 Ki (nM), H = HTRF
HPK1-FL (HPK full length, T165E S171E), sequence (Q92918 whole entry T165E/S171E): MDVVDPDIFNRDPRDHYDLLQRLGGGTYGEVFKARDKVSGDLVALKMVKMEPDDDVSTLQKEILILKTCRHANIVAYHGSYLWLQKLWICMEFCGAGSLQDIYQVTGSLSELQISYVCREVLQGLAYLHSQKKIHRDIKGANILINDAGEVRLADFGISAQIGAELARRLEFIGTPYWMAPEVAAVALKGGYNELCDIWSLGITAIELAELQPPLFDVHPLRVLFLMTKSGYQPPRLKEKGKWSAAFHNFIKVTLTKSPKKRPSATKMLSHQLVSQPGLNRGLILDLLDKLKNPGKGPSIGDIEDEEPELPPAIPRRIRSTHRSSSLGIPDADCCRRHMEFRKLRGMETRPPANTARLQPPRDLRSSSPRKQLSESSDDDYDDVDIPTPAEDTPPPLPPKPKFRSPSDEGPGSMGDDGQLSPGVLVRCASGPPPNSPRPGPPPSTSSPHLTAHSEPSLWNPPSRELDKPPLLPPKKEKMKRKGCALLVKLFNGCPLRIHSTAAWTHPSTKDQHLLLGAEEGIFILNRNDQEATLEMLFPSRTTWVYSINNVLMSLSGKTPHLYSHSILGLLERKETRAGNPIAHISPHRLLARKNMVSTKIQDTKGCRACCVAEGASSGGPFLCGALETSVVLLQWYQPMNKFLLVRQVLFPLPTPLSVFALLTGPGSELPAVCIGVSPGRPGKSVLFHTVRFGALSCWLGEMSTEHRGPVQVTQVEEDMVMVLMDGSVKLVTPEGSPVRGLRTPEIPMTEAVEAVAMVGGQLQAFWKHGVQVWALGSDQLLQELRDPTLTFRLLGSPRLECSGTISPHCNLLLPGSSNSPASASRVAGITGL
Description: HPK1-FL HTRF Enzymatic Assay (“HTRF”)
HPK-FL enzyme phosphorylates Biotin-SLP-76 substrate in the presence of ATP at 1 mM and varying concentrations of test compound. Product is detected by FRET using Eu-anti-pSLP76 Ab and SA-XL665. See www.cisbio.com/HTRF for additional HTRF technology information.
Instrumentation: • Echo555 compound dispenser • Agilent Bravo • Perkin Elmer Envision
Materials: • Assay plate: White ProxiPlate 384 F (PerkinElmer cat #6008289) • Kinase: HPK full length double mutant • Substrate: Biotin-SLP76 • ATP: 100 mM ATP • BSG: 2% BSG • DMSO: DMSO (Sigma cat #34869-100ML) • Reaction Buffer: H2O/50 mM HEPES, pH 7.5/10 mM MgCl2/2 mM TCEP/0.01% Brij-35/0.01% BSG • Detection mix: Eu-anti-pSLP76/SA-XL665 (Cisbio, #610SAXAC)
Assay Procedure Ki Determination:
To a 384 well Proxiplate with 80 nL compound or DMSO spotted on was added 4 μl/well kinase mix. The mixture was preincubated for 30 minutes and then 4 μl/well substrate mix was added. The solution was incubated for 60 min and then 4 μl/well detection mix was added. The solution was incubated for another 60 min. The plates were then loaded onto a Perkin Elmer Envision and the TR-FRET signal was measured at 615 and 665 nm. A ratio of […] was used to calculate the % activity at each concentration of compound.

[5] = Table B1-1, read-out: HPK1 Ki (μM) (Lanth)
[6] = Table B2, read-out: HPK1 Ki (nM), L = Lanth
[7] = Table B1-2, read-out: HPK1 Ki, L = Lanth

HPK1 (Homo sapiens, UniProt Q92918), sequence (Q92918 whole entry, looked up): as the sequence (Q92918 whole entry T165E/S171E) above, with E165T, E171S counted along it

SMILES | Ki (HPK1 [3]; [5]) | % IL-2 increase relative to untreated cells ([2]; assayed concentration 0.93 μM) | Ki (HPK1 [3]; [6]) | also measured
Cc1n[nH]c(C)c1-c1cc2cc(NC(=O)[C@@H]3C[C@@H]3F)ncc2c(N)n1 (racemic) [Compound 103, (±)-cis-N-(8-amino-6-{3,5-dimethyl-1H-pyrazol-4-yl)-2,7-naphthyridin-3-yl)-2-fluorocyclopropane-1-carboxamide] |  |  |  | Ki (HPK1 [1]): 3.8 nM; % IL-2 increase relative to untreated cells ([2]; assayed concentration 0.31 μM): 94%
Cc1ccncc1-c1cc2cc(Nc3cnn([C@H](C)C#N)c3)ncc2c(N)n1 (single isomer, unassigned) [Compound 273] | 0.0675 nM | 830% |  | Ki (HPK1 [1]): 0.06 nM
Cc1ccncc1-c1cc2cc(NC(=O)[C@H]3[C@@H](C)[C@@H]3c3cnn(C)c3)ncc2c(N)n1 (single isomer, unassigned) [Compound 328] | 0.114 nM | 936% | 0.11 nM | 
Cc1cccc(F)c1-c1cc2cc(NC(=O)[C@@H]3[C@H](C)[C@H]3c3cnn(C)c3)ncc2c(N)n1 (single isomer, unassigned) [Compound 356] |  |  | 0.3 nM | Ki (HPK1 [3]; [7]): 0.3 nM; % IL-2 increase relative to untreated cells ([2]; assayed concentration 2.8 μM): 732%
Cc1cc(-c2ncco2)ccc1-c1cc2cc(NC(=O)[C@H]3C[C@@H]3c3cnn(C)c3)ncc2c(N)n1 (single isomer, unassigned) [Compound 379] |  |  |  | % IL-2 increase relative to untreated cells ([2]; assayed concentration 2.8 μM): 547%
Cc1ccncc1-c1cc2cc(NC(=O)C3CC3)ncc2c(N)n1 [Compound 24, N-(8-amino-6-(4-methylpyridin-3-yl)-2,7-naphthyridin-3-yl)cyclopropanecarboxamide] | 0.68 nM | 513% | 0.68 nM | 
CNC(=O)Nc1cc2cc(-c3cnccc3C)nc(N)c2cn1 [Compound 130, 1-[8-amino-6-(4-methyl-3-pyridyl)-2,7-naphthyridin-3-yl]-3-methyl-urea] | 2.6 nM | 274% | 2.6 nM | 
Cc1ccncc1-c1cc2cc(Nc3cc4n(n3)CC(=O)N(C)CC4)ncc2c(N)n1 [Compound 256, 2-[[8-amino-6-(4-methylpyridin-3-yl)-2,7-naphthyridin-3-yl]amino]-6-methyl-4H,5H,6H,7H,8H-pyrazolo[1,5-d][1,4]diazepin-7-one] | 0.02 nM |  |  | Ki [4]: 0.59 nM; % IL-2 increase relative to untreated cells ([2]; assayed concentration 0.31 μM): 699%
Cc1ccncc1-c1cc2cc(Nc3ccc(CC#N)cn3)ncc2c(N)n1 [Compound 389, 2-[6-[[8-amino-6-(4-methyl-3-pyridyl)-2,7-naphthyridin-3-yl]amino]-3-pyridyl]acetonitrile] |  |  | 0.033 nM | Ki (HPK1 [3]; [7]): 0.033 nM; % IL-2 increase relative to untreated cells ([2]; assayed concentration 0.10 μM): 265%

Reference: patent US11034692B1 (Genentech, Inc., priority 2017, dated 2021)
